From patent US8530470B2, “Chromenone derivatives” (Astrazeneca AB, priority 2011, dated 2013)
Like-named read-outs stand apart in the source and are kept apart here.

Assays:
PI3Kδ = PI3Kδ (Homo sapiens, UniProt O00329); experiment: In vitro enzyme inhibition assay (Kinase Glo), PI3Kδ; format: biochemical; settings: Test (a)
Protocol: (§1) (a) In Vitro Enzyme Inhibition Assay
(§2) The inhibition of PI3Kβ, PI3Kα, PI3Kγ and PI3Kδ was evaluated in a Kinase Glo based enzyme activity assay using human recombinant enzymes. The assay measures depletion of ATP after incubation with enzyme, PIP2 and ATP plus compound. ATP at the end of the reaction is detected by addition of Kinase Glo reagent, in this the Ultra Glo™ luciferase (Promega) uses the ATP as a substrate to catalyze the mono-oxygenation of luciferin and the generation of light. A direct relationship exists between the luminescence measured with the Kinase-Glo Plus Reagent and the amount of ATP remaining in a completed kinase reaction and luminescence is inversely related to kinase activity. Twelve different compound concentrations were tested and raw data from the inhibition of PI3Kβ, PI3Kα, PI3Kγ and PI3Kδ was plotted versus inhibitor concentration.
(§3) Compounds in 100% DMSO were added to assay plates by acoustic dispensing. PI3β was added in a Tris buffer (50 mM Tris pH7.4, 0.05% CHAPS, 2.1 mM DTT, and 10 mM MgCl2) and allowed to preincubate with compound for 20 min prior to addition of substrate solution containing PIP2 and ATP. The enzyme reaction was stopped after 80 min by the addition of Kinase Glo detection solution. […] The final concentration of DMSO, ATP and PIP2 in the assay were, 1%, 8 μM, and 80 μM respectively.
(§4) IC50 values were calculated using a log curve fitting to a non-linear regression package, fitting raw data to inhibitor concentration.

PI3Kβ = PI3Kβ (Homo sapiens, UniProt P42338); experiment: In vitro enzyme inhibition assay (Kinase Glo), PI3Kβ; format: biochemical
PI3Kβ, sequence (P42338 whole entry): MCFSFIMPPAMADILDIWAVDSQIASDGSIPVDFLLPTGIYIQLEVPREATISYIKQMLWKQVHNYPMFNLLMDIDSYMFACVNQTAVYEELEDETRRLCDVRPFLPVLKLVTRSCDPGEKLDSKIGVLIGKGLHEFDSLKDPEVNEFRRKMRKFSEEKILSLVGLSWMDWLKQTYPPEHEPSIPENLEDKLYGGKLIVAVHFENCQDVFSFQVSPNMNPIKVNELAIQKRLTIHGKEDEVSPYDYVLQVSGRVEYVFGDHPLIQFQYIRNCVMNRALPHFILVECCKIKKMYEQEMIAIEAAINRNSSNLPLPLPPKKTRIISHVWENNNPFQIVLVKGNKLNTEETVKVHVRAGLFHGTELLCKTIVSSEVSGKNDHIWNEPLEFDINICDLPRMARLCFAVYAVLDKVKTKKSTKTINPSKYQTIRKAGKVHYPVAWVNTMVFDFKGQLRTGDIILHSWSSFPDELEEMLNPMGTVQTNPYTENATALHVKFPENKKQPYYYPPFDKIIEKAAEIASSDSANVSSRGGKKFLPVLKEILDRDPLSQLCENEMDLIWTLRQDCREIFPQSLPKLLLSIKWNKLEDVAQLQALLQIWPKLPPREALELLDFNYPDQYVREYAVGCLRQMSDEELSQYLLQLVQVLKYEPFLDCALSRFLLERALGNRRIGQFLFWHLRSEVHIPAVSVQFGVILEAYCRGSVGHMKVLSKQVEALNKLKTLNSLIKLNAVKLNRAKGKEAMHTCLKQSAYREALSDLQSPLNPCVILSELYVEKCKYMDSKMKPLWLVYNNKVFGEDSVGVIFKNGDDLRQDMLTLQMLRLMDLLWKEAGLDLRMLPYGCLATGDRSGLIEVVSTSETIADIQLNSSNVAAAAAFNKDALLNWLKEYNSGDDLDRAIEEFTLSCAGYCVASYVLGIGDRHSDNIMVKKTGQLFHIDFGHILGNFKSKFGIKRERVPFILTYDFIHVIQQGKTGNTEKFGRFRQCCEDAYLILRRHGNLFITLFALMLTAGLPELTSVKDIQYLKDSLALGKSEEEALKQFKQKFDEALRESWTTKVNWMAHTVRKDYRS
PI3Kβ, sequence (P27986 whole entry partner): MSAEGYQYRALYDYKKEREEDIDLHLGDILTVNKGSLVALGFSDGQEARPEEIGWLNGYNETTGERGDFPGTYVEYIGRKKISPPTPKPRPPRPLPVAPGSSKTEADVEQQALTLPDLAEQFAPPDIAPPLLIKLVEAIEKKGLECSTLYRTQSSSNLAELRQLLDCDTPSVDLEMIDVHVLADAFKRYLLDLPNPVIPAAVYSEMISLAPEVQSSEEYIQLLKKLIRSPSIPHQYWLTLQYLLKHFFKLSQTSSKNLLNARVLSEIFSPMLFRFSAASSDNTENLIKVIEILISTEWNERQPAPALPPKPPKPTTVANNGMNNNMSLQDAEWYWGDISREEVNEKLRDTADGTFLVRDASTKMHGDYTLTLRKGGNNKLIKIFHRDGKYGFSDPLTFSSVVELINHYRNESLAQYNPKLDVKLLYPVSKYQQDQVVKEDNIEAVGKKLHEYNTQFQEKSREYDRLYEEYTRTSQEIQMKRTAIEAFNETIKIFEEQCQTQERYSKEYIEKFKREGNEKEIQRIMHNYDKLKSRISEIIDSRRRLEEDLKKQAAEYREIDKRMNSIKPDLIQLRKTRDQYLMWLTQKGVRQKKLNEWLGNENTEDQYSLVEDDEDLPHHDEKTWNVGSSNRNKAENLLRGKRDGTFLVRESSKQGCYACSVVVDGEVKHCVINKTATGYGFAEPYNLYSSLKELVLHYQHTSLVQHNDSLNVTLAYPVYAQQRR
Protocol: as §1, §2, §3, §4

[1] = test system: phospho AKT (ser473) in MDA-MB-468 cells; experiment: Detection of phospho AKT (ser473) in MDA-MB-468 cells; format: cell-based; settings: Homo sapiens, Test (b), 2 hours incubation, approximate value, read-out: IC50 versus cellular phospho AKT (ser473) in MDA-MB-468 cells
Protocol: (b) Protocol for Detection of Phospho AKT (ser473) in MDA-MB-468 Cells
MDA-MB-468 cells (human breast adenocarcinoma ATCC HTB 132) are seeded into Greiner 384 well black flat-bottomed plates by automated cell culture robot (Selec T). Cells can also be maintained manually and seeded into plates using multidrop or Wellmate. Cells seeded at 1500 cell/well in 40 μl of DMEN containing 10% FCS and 1% glutamine. Cell plates are incubated for 18 hours in a 37° C. incubator.
Compounds are dosed onto cells using an Echo acoustic dispenser, which dispenses nl quantities of compound or DMSO. Compounds are dosed in a 12 point concentration range from 30 μM top dose, 28 compounds are dosed on one plate. There are 17 DMSO only positive control wells per plate, and 16 negative control well which have been dosed with a concentration of reference compound that will knockout the pAKT signal.
Plates are incubated at 37° C. for 2 hours, cells are the fixed by the addition of 10 μl of a 3.7% Formaldehyde solution in a fume cupboard using a Wellmate.
After 30 min to allow for fixation, the fixative and media are removed and the plates washed with Proclin PBS/A using Tecan PW384 plate washer in a fume cupboard. Wells are blocked and permeabilised with the addition of 40 μl of PBS containing 0.5% Tween20 and 1% marvel using a Wellmate and incubated for 60 min at room temperature.
Permeabilisation and blocking buffer removed using Tecan PW384 plate washer, then 20 μl primary antibody solution added using a Wellmate. The primary antibody solution is a 1:500 dilution of Rabbit anti-phospho AKT Ser 473 (Cell signalling technologies catalogue number #3787) in PBS/T containing 1% marvel (dried milk powder) and incubated overnight at 4° C.
Plates are washed using a Tecan PW384 plate washer three times with Phosphate Buffered Saline+0.05% (v/v) Polysorbate20 and Proclin300 (Supelco). 20 μl of secondary antibody solution is then added to each well using a Wellmate and incubated for 1 hour at Room Temp. The secondary antibody solution is a 1:1000 dilution of Alexa Fluor 488 anti-Rabbit (Molecular Probes cat no A11008) diluted in Phosphate Buffered Saline+0.05% (v/v) Polysorbate20 containing 1% marvel. Plates are washed three times as before then […] added to each well and plates sealed with black plate sealer.
The plates are read on an Acumen reader as soon as possible. Using this system IC50 values can be generated and quality of plates determined by control wells. Reference compounds are run each time to monitor assay performance.

[2] = human recombinant enzyme, Table A, read-out: PI3Kδ inhibition, IC50
[3] = Test (a), approximate value, read-out: IC50 versus PI3Kβ
[4] = Test (a), human recombinant enzyme, ATP 8 μM, PIP2 80 μM, Table A, read-out: PI3Kβ inhibition, IC50
[5] = approximate value, read-out: IC50 versus PI3Kδ

PI3Kδ, sequence (O00329 whole entry): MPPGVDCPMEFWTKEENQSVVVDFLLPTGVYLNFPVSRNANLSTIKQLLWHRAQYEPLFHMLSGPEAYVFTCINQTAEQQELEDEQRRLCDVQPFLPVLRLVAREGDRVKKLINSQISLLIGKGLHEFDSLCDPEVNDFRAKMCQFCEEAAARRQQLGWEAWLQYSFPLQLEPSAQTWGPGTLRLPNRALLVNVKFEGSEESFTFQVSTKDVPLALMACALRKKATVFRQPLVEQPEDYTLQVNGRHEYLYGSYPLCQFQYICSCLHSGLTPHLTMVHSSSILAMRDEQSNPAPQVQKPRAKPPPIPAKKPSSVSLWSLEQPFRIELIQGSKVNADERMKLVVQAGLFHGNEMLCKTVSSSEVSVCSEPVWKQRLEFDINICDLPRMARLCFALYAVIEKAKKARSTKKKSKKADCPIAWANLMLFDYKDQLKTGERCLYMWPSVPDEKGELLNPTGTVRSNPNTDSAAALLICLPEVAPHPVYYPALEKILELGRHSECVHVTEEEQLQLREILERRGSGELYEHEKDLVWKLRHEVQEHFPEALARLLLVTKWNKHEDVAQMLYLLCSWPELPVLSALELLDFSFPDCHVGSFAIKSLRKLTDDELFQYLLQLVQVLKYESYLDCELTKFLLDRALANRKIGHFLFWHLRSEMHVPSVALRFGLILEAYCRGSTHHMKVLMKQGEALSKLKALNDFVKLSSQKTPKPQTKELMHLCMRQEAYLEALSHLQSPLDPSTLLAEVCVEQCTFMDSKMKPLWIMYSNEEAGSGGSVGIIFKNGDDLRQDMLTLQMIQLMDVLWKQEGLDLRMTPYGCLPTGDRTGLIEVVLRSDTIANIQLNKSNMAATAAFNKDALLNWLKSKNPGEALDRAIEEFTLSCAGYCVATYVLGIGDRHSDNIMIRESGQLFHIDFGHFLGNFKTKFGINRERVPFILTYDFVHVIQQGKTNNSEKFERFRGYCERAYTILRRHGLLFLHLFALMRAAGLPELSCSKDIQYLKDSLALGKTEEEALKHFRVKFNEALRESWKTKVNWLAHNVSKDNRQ
PI3Kδ, sequence (P27986 whole entry partner): as the sequence (P27986 whole entry partner) above

Structure (SMILES)	IC50 (PI3Kδ; [2])	IC50 (PI3Kβ; [3])	IC50 (PI3Kβ; [4])	IC50 (PI3Kδ; [5])	IC50 [1]	IC50 (PI3Kβ; IC50 versus PI3Kβ)
CN(CCO)C(=O)c1cc(C2CCCN2c2cc(F)cc(F)c2)c2oc(N3CCOCC3)cc(=O)c2c1 (centres unmarked) [Example 1.01, 8-(1-(3,5-difluorophenyl)pyrrolidin-2-yl)-N-(2-hydroxyethyl)-N-methyl-2-morpholino-4-oxo-4H-chromene-6-carboxamide]	16 nM	–	–	–	–	–
C[C@@H]1CN(c2cc(=O)c3cc(C(=O)N4CCOCC4)cc(C4CCCN4c4cc(F)cc(F)c4)c3o2)CCO1 (stereo partly drawn) [Example 3.00, 8-(1-(3,5-difluorophenyl)pyrrolidin-2-yl)-2-((R)-2-methylmorpholino)-6-(morpholine-4-carbonyl)-4H-chromen-4-one]	18 nM	~11 nM	11 nM	~18 nM	~3 nM	–
CN(C)C(=O)c1cc(C2CCCN2c2cc(F)cc(F)c2)c2oc(N3CCOCC3)cc(=O)c2c1 (centres unmarked) [Example 1.00, 8-[1-(3,5-difluorophenyl)pyrrolidin-2-yl]-N,N-dimethyl-2-morpholino-4-oxo-4H-chromene-6-carboxamide]	15 nM	–	–	–	–	–
O=C(c1cc([C@H]2CCCN2c2cccc(F)c2)c2oc(N3CCOCC3)cc(=O)c2c1)N1CCC1 [Example 1.08, 6-(azetidine-1-carbonyl)-8-[(2R)-(1-(3-fluorophenyl)pyrrolidin-2-yl)]-2-morpholino-4H-chromen-4-one]	6 nM	~6 nM	6 nM	~6 nM	~2 nM	–
O=C(c1cc(C2CCCN2c2cc(F)cc(F)c2)c2oc(N3CCOCC3)cc(=O)c2c1)N1CC[S+]([O-])CC1 (centres unmarked) [Example 1.04, 8-[1-(3,5-difluorophenyl)pyrrolidin-2-yl]-2-morpholino-6-[(1-oxidothiomorpholin-4-yl)carbonyl]-4H-chromen-4-one]	24 nM	~11 nM	11 nM	~24 nM	~5 nM	–
CN(C)C(=O)c1cc([C@H]2CCCN2c2cccc(F)c2)c2oc(N3CCOCC3)cc(=O)c2c1 [Example 1.06, 8-[(2R)-(1-(3-fluorophenyl)pyrrolidin-2-yl)]-N,N-dimethyl-2-morpholino-4-oxo-4H-chromene-6-carboxamide]	7 nM	~7 nM	7 nM	~7 nM	~1 nM	–
C[C@@H]1CN(c2cc(=O)c3cc(C(=O)N4CCOCC4)cc(C4CCCN4c4ccccc4)c3o2)CCO1 (stereo partly drawn) [Example 3.01, 2-((R)-2-methylmorpholino)-6-(morpholine-4-carbonyl)-8-(1-phenylpyrrolidin-2-yl)-4H-chromen-4-one]	15 nM	–	14 nM	–	~6 nM	–
CN(C)C(=O)c1cc(C2CCCN2c2cc(F)cc(C#N)c2)c2oc(N3CCOCC3)cc(=O)c2c1 (centres unmarked) [Example 2.02, 8-(1-(3-cyano-5-fluorophenyl)pyrrolidin-2-yl)-N,N-dimethyl-2-morpholino-4-oxo-4H-chromene-6-carboxamide]	16 nM	–	13 nM	–	–	–
CN(C)C(=O)c1cc(C2CCCN2c2ccc(F)cc2)c2oc(N3CCOCC3)cc(=O)c2c1 (racemic) [Example 2.04, 8-(1-(4-fluorophenyl)pyrrolidin-2-yl)-N,N-dimethyl-2-morpholino-4-oxo-4H-chromene-6-carboxamide]	19 nM	–	17 nM	–	–	–
O=C(c1cc([C@H]2CCCN2c2cccc(F)c2)c2oc(N3CCOCC3)cc(=O)c2c1)N1CCOCC1 [Example 1.07, 8-[(2R)-(1-(3-fluorophenyl)pyrrolidin-2-yl)]-6-(morpholine-4-carbonyl)-2-morpholino-4H-chromen-4-one]	5 nM	–	6 nM	~5 nM	~2 nM	~6 nM
CN1CCN(C(=O)c2cc([C@H]3CCCN3c3cccc(F)c3)c3oc(N4CCOCC4)cc(=O)c3c2)CC1 [Example 1.10, 8-[(2R)-(1-(3-fluorophenyl)pyrrolidin-2-yl)]-6-(4-methylpiperazine-1-carbonyl)-2-morpholino-4H-chromen-4-one]	21 nM	~8 nM	8 nM	~21 nM	~4 nM	–
O=C(c1cc([C@H]2CCCN2c2cc(F)cc(F)c2)c2oc(N3CCOCC3)cc(=O)c2c1)N1CCC1 [Example 1.05, 6-(azetidine-1-carbonyl)-8-[(2R)-(1-(3,5-difluorophenyl)pyrrolidin-2-yl)]-2-morpholino-4H-chromen-4-one]	9 nM	~7 nM	7 nM	~9 nM	~1 nM	–
O=C(c1cc(C2CCCN2c2cc(F)cc(F)c2)c2oc(N3CCOCC3)cc(=O)c2c1)N1CCOCC1 (racemic) [Example 1.03, 8-(1-(3,5-difluorophenyl)pyrrolidin-2-yl)-6-(morpholine-4-carbonyl)-2-morpholino-4H-chromen-4-one]	22 nM	~12 nM	12 nM	~22 nM	~2 nM	–
C[C@@H]1CN(c2cc(=O)c3cc(C(=O)N4CCOCC4)cc(C4CCCN4c4cccc(F)c4)c3o2)CCO1 (stereo partly drawn) [Example 3.02, 8-(1-(3-fluorophenyl)pyrrolidin-2-yl)-2-((R)-2-methylmorpholino)-6-(morpholine-4-carbonyl)-4H-chromen-4-one]	10 nM	~14 nM	14 nM	~10 nM	~3 nM	–
O=C(c1cc(C2CCCN2c2ccc(F)cc2)c2oc(N3CCOCC3)cc(=O)c2c1)N1CCOCC1 (racemic) [Example 1.12, 8-(1-(4-fluorophenyl)pyrrolidin-2-yl)-6-(morpholine-4-carbonyl)-2-morpholino-4H-chromen-4-one]	32 nM	–	15 nM	–	–	–
C[C@@H]1CN(c2cc(=O)c3cc(C(=O)N(C)C)cc(C4CCCN4c4cccc(F)c4)c3o2)CCO1 (stereo partly drawn) [Example 3.03, 8-(1-(3-fluorophenyl)pyrrolidin-2-yl)-N,N-dimethyl-2-((R)-2-methylmorpholino)-4-oxo-4H-chromene-6-carboxamide]	7 nM	~10 nM	10 nM	~7 nM	~1 nM	–
O=C(c1cc(C2CCCN2c2cc(F)cc(F)c2)c2oc(N3CCOCC3)cc(=O)c2c1)N1CCC(O)CC1 (centres unmarked) [Example 1.02, 8-(1-(3,5-difluorophenyl)pyrrolidin-2-yl)-6-(4-hydroxypiperidine-1-carbonyl)-2-morpholino-4H-chromen-4-one]	14 nM	–	–	–	–	–
COc1cccc(N2CCCC2c2cc(C(=O)N(C)C)cc3c(=O)cc(N4CCOCC4)oc23)c1 (centres unmarked) [Example 2.01, 8-(1-(3-methoxyphenyl)pyrrolidin-2-yl)-N,N-dimethyl-2-morpholino-4-oxo-4H-chromene-6-carboxamide]	15 nM	–	10 nM	–	–	–
CN1CCN(C(=O)c2cc([C@H]3CCCN3c3cc(F)cc(F)c3)c3oc(N4CCOCC4)cc(=O)c3c2)CC1 [Example 1.09, 8-[(2R)-(1-(3,5-difluorophenyl)pyrrolidin-2-yl)]-6-(4-methylpiperazine-1-carbonyl)-2-morpholino-4H-chromen-4-one]	14 nM	–	–	–	–	–
